How the values were obtained:
Experiment in all cases: Kinase inhibitor library screening, PrestoBlue cell viability, 1 or 10 μM, 72 h
501Mel cells (parental) = settings: 72 h
In short: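 Two concentrations of every kinase inhibitor were tested on each melanoma line and its resistant counterparts, and cell survival was quantified by PrestoBlue against untreated wells.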

[1] = test system: 501Mel-GP cells (Dabrafenib-resistant); settings: 72 h
[2] = test system: 501Mel-XP cells (Vemurafenib-resistant); settings: 72 h
A375 cells (parental) = test system: A375 cells (parental)
[3] = test system: A375-GP cells (Dabrafenib-resistant)
[4] = test system: A375-XP cells (Vemurafenib-resistant)
IGR37 cells (parental) = test system: IGR37 cells (parental)
[5] = test system: IGR37-GP cells (Dabrafenib-resistant)
[6] = test system: IGR37-XP cells (Vemurafenib-resistant)
[7] = IGR37 Parental, 10μΜ, 72 h, in %

In the case of `CC(C)(C)Cn1c(N)nc2ccc(-c3[nH]c(C(C)(C)C)nc3-c3ccc(F)cc3)nc21` [LY2228820], the “Cell viability in kinase inhibitor library screening, 501Mel Parental, 1μΜ” value (501Mel cells (parental); 501Mel Parental, 1μΜ, in %) is reported as 95.6, the “Cell viability in kinase inhibitor library screening, 501Mel Parental, 10μΜ” value (501Mel cells (parental); 501Mel Parental, 10μΜ, in %) is reported as 91.9 and the “Cell viability in kinase inhibitor library screening, 501Mel GP, 1μΜ” value ([1]; 501Mel GP, 1μΜ, in %) is reported as 108.2. The “Cell viability in kinase inhibitor library screening, 501Mel XP, 1μΜ” value ([2]; 501Mel XP, 1μΜ, in %) was 97.0, the “Cell viability in kinase inhibitor library screening, 501Mel XP, 10μΜ” value ([2]; 501Mel XP, 10μΜ, in %) was 82.4 and the “Cell viability in kinase inhibitor library screening, A375 Parental, 10μΜ” value (A375 cells (parental); A375 Parental, 10μΜ, 72 h) was 91.0. For the same compound, the “Cell viability in kinase inhibitor library screening, A375 Parental, 1μΜ” value (A375 cells (parental); A375 Parental, 1μΜ, 72 h) was 105.7, the “Cell viability in kinase inhibitor library screening, A375 GP, 1μΜ” value ([3]; A375 GP, 1μΜ, 72 h) was 105.3 and the “Cell viability in kinase inhibitor library screening, A375 GP, 10μΜ” value ([3]; A375 GP, 10μΜ, 72 h) was 79.1. The “Cell viability in kinase inhibitor library screening, A375 XP, 1μΜ” value ([4]; A375 XP, 1μΜ, 72 h) was 100.0, the “Cell viability in kinase inhibitor library screening, A375 XP, 10μΜ” value ([4]; A375 XP, 10μΜ, 72 h) was 84.7 and the “Cell viability in kinase inhibitor library screening, IGR37 Parental, 10μΜ” value (IGR37 cells (parental); [7]) was 98.8. The Cell viability in kinase inhibitor library screening, IGR37 GP, 10μΜ ([5]; IGR37 GP, 10μΜ, 72 h) was 82.8%, the “Cell viability in kinase inhibitor library screening, IGR37 GP, 1μΜ” value ([5]; IGR37 GP, 1μΜ, 72 h, in %) was 90.6 and the Cell viability in kinase inhibitor library screening, IGR37 XP, 10μΜ ([6]; IGR37 XP, 10μΜ, 72 h) was 38.4%. The “Cell viability in kinase inhibitor library screening, IGR37 XP, 1μΜ” value ([6]; IGR37 XP, 1μΜ, 72 h, in %) was 91.6.
`Cc1cnc(NC(=O)Nc2cc(Br)c(C)cc2OC[C@@H]2CNCCO2)cn1` [LY2603618 (IC-83)] was tested, and the “cell viability (kinase inhibitor library screening)” value (501Mel cells (parental); 501Mel Parental, 1μΜ) was 84.2%, the “cell viability (kinase inhibitor library screening)” value (501Mel cells (parental); 501Mel Parental, 10μΜ) was 2.1% and the “cell viability (kinase inhibitor library screening)” value ([1]; 501Mel GP, 1μΜ) was 91.7%. The “cell viability (kinase inhibitor library screening)” value ([1]; 501Mel GP, 10μΜ) was 4.4%, the “cell viability (kinase inhibitor library screening)” value ([2]; 501Mel XP, 1μΜ) was 69.5% and the “cell viability (kinase inhibitor library screening)” value ([2]; 501Mel XP, 10μΜ) was -0.8%. For the same compound, the “cell viability (kinase inhibitor library screening)” value (A375 cells (parental); A375 Parental, 10μΜ, 72 h) was 15.4%, the “cell viability (kinase inhibitor library screening)” value (A375 cells (parental); A375 Parental, 1μΜ, 72 h) was 86.3% and the “cell viability (kinase inhibitor library screening)” value ([3]; A375 GP, 10μΜ, 72 h) was 11.5%. The “cell viability (kinase inhibitor library screening)” value ([4]; A375 XP, 1μΜ, 72 h) was 87.2%, the “cell viability (kinase inhibitor library screening)” value ([4]; A375 XP, 10μΜ, 72 h) was 15.7% and the “cell viability (kinase inhibitor library screening)” value (IGR37 cells (parental); IGR37 Parental, 1μΜ, 72 h) was 81.7%. The “cell viability (kinase inhibitor library screening)” value (IGR37 cells (parental); IGR37 Parental, 10μΜ, 72 h) was 37.5%, the “cell viability (kinase inhibitor library screening)” value ([5]; IGR37 GP, 1μΜ, 72 h) was 73.8% and the “cell viability (kinase inhibitor library screening)” value ([5]; IGR37 GP, 10μΜ, 72 h) was 67.9%. The “cell viability (kinase inhibitor library screening)” value ([6]; IGR37 XP, 1μΜ, 72 h) was 52.7% and the “cell viability (kinase inhibitor library screening)” value ([6]; IGR37 XP, 10μΜ, 72 h) was 26.7%.
In the case of `Cc1cc(Nc2cc(CN3CCOCC3)c3nc(C)c(Cc4ccc(Cl)cc4F)n3n2)n[nH]1` [LY2784544], the viability at 1 µM (501Mel cells (parental); Homo sapiens, read-out: cell viability, 501Mel Parental, 1μΜ) is reported as 89.9%, the viability at 10 µM (501Mel cells (parental); Homo sapiens, read-out: cell viability, 501Mel Parental, 10μΜ) is reported as 67.3% and the viability at 1 µM ([1]; Homo sapiens, read-out: cell viability, 501Mel GP, 1μΜ) is reported as 99.1%. The viability at 10 µM ([1]; Homo sapiens, read-out: cell viability, 501Mel GP, 10μΜ) was 49%, the viability at 1 µM ([2]; Homo sapiens, read-out: cell viability, 501Mel XP, 1μΜ) was 87.1% and the viability at 10 µM ([2]; Homo sapiens, read-out: cell viability, 501Mel XP, 10μΜ) was 27.9%. The viability at 1 µM (A375 cells (parental); Homo sapiens, A-375, 72 h, read-out: cell viability, A375 Parental, 1μΜ) was 94.9%, the viability at 10 µM (A375 cells (parental); Homo sapiens, A-375, 72 h, read-out: cell viability, A375 Parental, 10μΜ) was 28.1% and the viability at 1 µM ([3]; Homo sapiens, A-375, 72 h, read-out: cell viability, A375 GP, 1μΜ) was 101%. It also gave a viability at 10 µM ([3]; Homo sapiens, A-375, 72 h, read-out: cell viability, A375 GP, 10μΜ) of 26.9%, a viability at 1 µM ([4]; Homo sapiens, A-375, 72 h, read-out: cell viability, A375 XP, 1μΜ) of 102% and a viability at 10 µM ([4]; Homo sapiens, A-375, 72 h, read-out: cell viability, A375 XP, 10μΜ) of 35.9%. It also gave a viability at 1 µM (IGR37 cells (parental); Homo sapiens, IGR-37, 72 h, read-out: cell viability, IGR37 Parental, 1μΜ) of 99.2%, a viability at 10 µM (IGR37 cells (parental); Homo sapiens, IGR-37, 72 h, read-out: cell viability, IGR37 Parental, 10μΜ) of 87% and a viability at 1 µM ([5]; Homo sapiens, IGR-37, 72 h, read-out: cell viability, IGR37 GP, 1μΜ) of 90.3%. It also gave a viability at 10 µM ([5]; Homo sapiens, IGR-37, 72 h, read-out: cell viability, IGR37 GP, 10μΜ) of 53.2%, a viability at 1 µM ([6]; Homo sapiens, IGR-37, 72 h, read-out: cell viability, IGR37 XP, 1μΜ) of 91.6% and a viability at 10 µM ([6]; Homo sapiens, IGR-37, 72 h, read-out: cell viability, IGR37 XP, 10μΜ) of 17.9%.
In the case of `CS(=O)(=O)CCNCc1ccc(-c2ccc3ncnc(Nc4ccc(OCc5cccc(F)c5)c(Cl)c4)c3c2)o1.Cc1ccc(S(=O)(=O)O)cc1.Cc1ccc(S(=O)(=O)O)cc1` [Lapatinib Ditosylate (Tykerb)], the “cell viability, 501Mel Parental, 10μΜ” value (501Mel cells (parental); 501Mel Parental, 10μΜ, in %) is reported as 33.4, the “cell viability, 501Mel GP, 10μΜ” value ([1]; 501Mel GP, 10μΜ, in %) is reported as 78.0 and the “cell viability, 501Mel XP, 1μΜ” value ([2]; 501Mel XP, 1μΜ, in %) is reported as 94.1. The “cell viability, 501Mel XP, 10μΜ” value ([2]; 501Mel XP, 10μΜ, in %) was -0.129, the “cell viability, A375 Parental, 10μΜ” value (A375 cells (parental); A375 Parental, 10μΜ, 72 h, in %) was 78.4 and the “cell viability, A375 GP, 10μΜ” value ([3]; A375 GP, 10μΜ, 72 h, in %) was 81.7. For the same compound, the “cell viability, A375 XP, 1μΜ” value ([4]; A375 XP, 1μΜ, 72 h, in %) was 114.8, the “cell viability, A375 XP, 10μΜ” value ([4]; A375 XP, 10μΜ, 72 h, in %) was 72.3 and the “cell viability, IGR37 Parental, 10μΜ” value (IGR37 cells (parental); [7]) was 92.3. The cell viability, IGR37 GP, 10μΜ ([5]; IGR37 GP, 10μΜ, 72 h) was 14% and the cell viability, IGR37 XP, 10μΜ ([6]; IGR37 XP, 10μΜ, 72 h) was 1.6%.
